Measured values reported in patent US20180168208A1 (priority 2014, published 2018).
Where a name gives a salt, the structure may show the parent alone. Read-outs that look alike come from different tables or passages of the source.

Tests used:
T1R1/T1R3 receptor [1] = biological target: T1, T1R1/T1R3 receptor (Felis catus, UniProt E3UMS2); experiment: Example 8: PAM screening of transmembrane compounds with GMP and Ala on T1R1/T1R3 in HEK293 cells; type: cell-based, cat; settings: in the presence of GMP and Alanine
From the text: HEK293 cells that stably express T1R3 and inducibly express T1R1 were exposed to transmembrane compound alone or in combination with Ala and GMP to activate the umami receptor. Activation of the T1R1/T1R3 receptor was detected by a change in intracellular calcium levels using a calcium sensitive fluorescent dye and/or a luminescent reporter system. […] A FLIPR® Tetra or a FlexStation® 3 was used for data capture.
Dose response curves were generated for each transmembrane compound at concentrations of 0 (buffer only), 0.01, 0.1 and 1 mM, wherein each of the three concentrations of transmembrane compound was tested in combination with 0.03 mM GMP+100 mM Ala (T1); 0.6 mM GMP+10 mM Ala (T2); 0.1 mM GMP+60 mM Ala (T3) and 0.3 mM GMP+60 mM Ala (T4). The T4 mixture was also tested in a 2-fold dilution series (the T4(×) Concentration). In these experiments, the first test concentration was 2× (2 times) the T4 concentration. The subsequent test concentrations were 2-fold dilutions from that (1×, 0.5×etc.). This dilution series was tested with or without the addition of the test compound at a constant 0.3 mM concentration.
Activation of the umami receptor was also determined in the presence of 1 mM GMP+100 mM Ala to generate a “maximum” umami receptor activation level.
Target sequence in this assay (E3UMS2 entry or part of it, one chain of several): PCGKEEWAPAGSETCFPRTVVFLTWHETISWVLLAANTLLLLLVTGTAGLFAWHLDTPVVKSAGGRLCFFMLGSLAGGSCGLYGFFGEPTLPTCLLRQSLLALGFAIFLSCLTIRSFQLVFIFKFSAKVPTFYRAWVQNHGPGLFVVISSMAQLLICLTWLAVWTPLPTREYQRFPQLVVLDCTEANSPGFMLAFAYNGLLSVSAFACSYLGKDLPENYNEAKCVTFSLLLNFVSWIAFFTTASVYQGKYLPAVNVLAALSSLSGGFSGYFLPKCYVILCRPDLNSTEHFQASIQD

T1R1/T1R3 receptor [2] = biological target: T1, T1R1/T1R3 receptor; experiment: Example 8: agonist screening of transmembrane compounds on T1R1/T1R3 in HEK293 cells; type: cell-based, cat; settings: transmembrane compound alone
Procedure: HEK293 cells that stably express T1R3 and inducibly express T1R1 were exposed to a transmembrane compound. Activation of the T1R1/T1R3 receptor was detected by a change in intracellular calcium levels using a calcium sensitive fluorescent dye and/or a luminescent reporter system. […] A FLIPR® Tetra or a FlexStation® 3 was used for data capture.
Each transmembrane compound was tested at concentrations of 0.01 mM, 0.1 mM, and 1 mM. […] To generate the dose response curves, the transmembrane compound was tested at concentrations of between 0.0001 mM and 1.0 mM in the presence of GMP and Ala.
Target sequence in this assay (E3UMS2 entry or part of it, one chain of several): as above

T1R1/T1R3 receptor [3] = biological target: T1, T1R1/T1R3 receptor; experiment: Example 6: activation of T1R1/T1R3 by transmembrane compounds, conducted as in Example 5; type: cell-based
From the text: HEK293 cells that stably express T1R3 and inducibly express T1R1 were exposed to transmembrane compounds alone or in combination with one or more amino acids and/or one or more nucleotides to activate the umami receptor. Activation of the T1R1/T1R3 receptor was detected by a change in intracellular calcium levels using a calcium sensitive fluorescent dye. Cells that express T1R3 but not T1R1 were used as a control. A FLIPR® Tetra or a FlexStation® 3 was used for data capture.
In each experiment, serial dilutions of up to 10 mM of the transmembrane compound were added to the T1R1/T1R3-expressing cells.

T1R1/T1R3 receptor [4] = biological target: T1, T1R1/T1R3 receptor; experiment: cell-based; settings: for Max resp % of Ala, +IMP (0.2 mM): relative to alanine; for Thres (mM), +IMP (0.2 mM): threshold concentration in the presence of 0.2 mM IMP
Method in brief: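 HEK293 cells stably expressing T1R3 with inducible T1R1 were given transmembrane compounds in serial dilutions up to 10 mM, alone or with amino acids and/or nucleotides. Receptor activation was read as an intracellular calcium change with a calcium-sensitive fluorescent dye; T1R3-only cells served as control.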

cat T1R1/T1R3 receptor [5] = biological target: T2, cat T1R1/T1R3 receptor (Felis catus, UniProt A0ABI7Z2I4); experiment: cell-based
T2 sequence (A0ABI7Z2I4 171-420): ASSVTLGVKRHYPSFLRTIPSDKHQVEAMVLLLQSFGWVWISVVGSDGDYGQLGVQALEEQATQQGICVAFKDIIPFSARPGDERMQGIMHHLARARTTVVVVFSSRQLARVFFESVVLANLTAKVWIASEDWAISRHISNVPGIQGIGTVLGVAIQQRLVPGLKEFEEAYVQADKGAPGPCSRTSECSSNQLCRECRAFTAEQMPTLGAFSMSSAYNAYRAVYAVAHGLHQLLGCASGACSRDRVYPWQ
T2 sequence (Q49KI5 25-865 E206Q/N523D/F654L partner): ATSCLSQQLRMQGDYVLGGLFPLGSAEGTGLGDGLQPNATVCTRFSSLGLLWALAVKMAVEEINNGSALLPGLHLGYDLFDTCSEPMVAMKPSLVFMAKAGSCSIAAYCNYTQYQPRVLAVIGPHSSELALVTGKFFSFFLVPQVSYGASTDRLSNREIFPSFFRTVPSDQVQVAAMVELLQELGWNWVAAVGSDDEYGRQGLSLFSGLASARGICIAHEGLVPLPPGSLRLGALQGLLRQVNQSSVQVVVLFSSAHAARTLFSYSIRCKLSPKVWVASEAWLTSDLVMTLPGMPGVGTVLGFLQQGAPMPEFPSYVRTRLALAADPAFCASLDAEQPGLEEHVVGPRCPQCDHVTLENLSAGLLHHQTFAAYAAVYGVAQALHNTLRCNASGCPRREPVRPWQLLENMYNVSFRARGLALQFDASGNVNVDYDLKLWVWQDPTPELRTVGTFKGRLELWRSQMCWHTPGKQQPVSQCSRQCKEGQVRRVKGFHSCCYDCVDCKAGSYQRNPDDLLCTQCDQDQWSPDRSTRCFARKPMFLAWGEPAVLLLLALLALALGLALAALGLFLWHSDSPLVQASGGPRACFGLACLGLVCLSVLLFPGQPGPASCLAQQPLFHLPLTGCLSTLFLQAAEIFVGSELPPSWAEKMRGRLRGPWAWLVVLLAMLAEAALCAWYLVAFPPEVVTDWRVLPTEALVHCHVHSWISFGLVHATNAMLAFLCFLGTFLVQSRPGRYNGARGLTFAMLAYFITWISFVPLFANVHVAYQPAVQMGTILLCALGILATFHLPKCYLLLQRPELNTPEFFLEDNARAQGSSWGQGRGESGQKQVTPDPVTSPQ
Procedure: […] Activation of the T1R1/T1R3 receptor was detected by a change in intracellular calcium levels using a calcium sensitive fluorescent dye. Cells that express T1R3 but not T1R1 were used as a control. A FLIPR® Tetra or a FlexStation® 3 was used for data capture.
In each experiment, serial dilutions of up to 0.1 mM, 1 mM or 10 mM of the nucleotide derivative were added to the T1R1/T1R3-expressing cells.

cat T1R1/T1R3 receptor [6] = biological target: T2, cat T1R1/T1R3 receptor; experiment: cell-based; remark: listed apart in the source
Method in brief: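 HEK293 cells stably expressing T1R3 with inducible T1R1, treated with nucleotide derivatives alone or combined with amino acids and/or nucleotides. Activation read as intracellular calcium change by calcium-sensitive fluorescent dye and/or luminescent reporter. Cells expressing T1R3 without T1R1 served as control.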

[7] = with 20 mM alanine, read-out: EC50- with Ala

COC(=O)[C@@H](Cc1ccccc1)NCc1ccccc1.Cl [N-Benzyl-D-Phenylalanine methyl ester hydrochloride]
PAM profile assessment (PAM activity) (T1R1/T1R3 receptor [1]): PAM activity | agonist profile assessment (agonist activity) (T1R1/T1R3 receptor [2]): agonist

COC(=O)[C@H](Cc1ccccc1)NCc1ccccc1 [N-benzyl-L-phenylalanine methyl ester HCl]
EC50 (T1R1/T1R3 receptor [3]; T1R1/T1R3 EC50 +20 mM L-alanine, +20 mM L-alanine): 50 ± 1 µM | EC50 (T1R1/T1R3 receptor [3]; T1R1/T1R3 EC50 alone in buffer, alone in buffer): 30 ± 2 µM

COC(=O)[C@H](Cc1ccccc1)NCc1ccccc1.Cl [N-benzyl-L-phenylalanine methyl ester hydrochloride]
Max resp % of IMP, +Alanine (20 mM) (T1R1/T1R3 receptor [4]): 273.4% | Thres (mM), +Alanine (20 mM) (T1R1/T1R3 receptor [4]): 0.01 mM | Max resp ΔF/F, +IMP (0.2 mM) (T1R1/T1R3 receptor [4]; in the presence of 0.2 mM IMP): 2.2500 ΔF/F | Max resp % of Ala, +IMP (0.2 mM) (T1R1/T1R3 receptor [4]; in the presence of 0.2 mM IMP): 289.4% | Thres (mM), +IMP (0.2 mM) (T1R1/T1R3 receptor [4]): 0.003 mM | PAM profile assessment (PAM activity) (T1R1/T1R3 receptor [1]): PAM activity | agonist profile assessment (agonist activity) (T1R1/T1R3 receptor [2]): agonist

Nc1ncnc2c1ncn2C1OC(COP(O)(O)=S)C(O)C1O (stereo not shown) [adenosine 5′-O-thiomonophosphate, Adenosine 5′-O-thiomonophosphate]
EC50 (cat T1R1/T1R3 receptor [5]; test compound alone (in buffer), read-out: EC50- alone): > 1000 µM | EC50 (cat T1R1/T1R3 receptor [5]; [7]): 60 µM

C[C@H](N)C(=O)O [alanine]
EC50 (cat T1R1/T1R3 receptor [6]): 13.6 ± 4.3 mM | EC50 (T1R1/T1R3 receptor [4]; EC50 (effect with 0.2 mM IMP)): 12.3 ± 1.3 mM | EC50 (T1R1/T1R3 receptor [4]; EC50 (mM), +IMP (0.2 mM)): 12.3 mM | Max resp % of Ala, +IMP (0.2 mM) (T1R1/T1R3 receptor [4]; in the presence of 0.2 mM IMP): 100.0% | Thres (mM), +IMP (0.2 mM) (T1R1/T1R3 receptor [4]): 3.0 mM | EC50 (cat T1R1/T1R3 receptor [5]; EC50- alone): 13600 µM

O=c1nc[nH]c2c1ncn2C1O[C@H](COP(=O)(O)OP(=O)(O)OP(=O)(O)O)[C@@H](O)[C@H]1O (stereo partly shown) [inosine triphosphate (ITP) trisodium salt]
Activity (cat T1R1/T1R3 receptor [6]): active | EC50 (cat T1R1/T1R3 receptor [6]): 0.08 mM | Max resp. (ΔF/F) (cat T1R1/T1R3 receptor [6]): 0.3 ΔF/F | Max. resp. % of IMP (cat T1R1/T1R3 receptor [6]): 25.1 % of IMP | Threshold (cat T1R1/T1R3 receptor [6]): 0.02 mM | EC50 (cat T1R1/T1R3 receptor [5]; [7]): 80 ± 10 µM
